This passage reports IC50, MIC and LD50 results from ChEMBL document CHEMBL5247589, “Natural occurrence, bioactivity, and biosynthesis of triene-ansamycins” (Eur J Med Chem, 2022).

pIC50: −log10 of the molar value. Converted amounts (≈) assume the structure as drawn.

Data set [1] concerns HepG2. The data set can be described thus: Antitumor activity against human HepG2 incubated for 48 hrs by MTT assay. It is filed as functional, cell-based. Particulars: HepG2, 48 h. A general note: Formazan colour is commonly taken as a measure of viable cells.
Data set [2] concerns MCF7. The data set can be described thus: Antitumor activity against human MCF-7 incubated for 48 hrs by MTT assay. It is filed as functional, cell-based. Particulars: MCF7, 48 h.
In the next data set the test system is Capan-2. Description: Antitumor activity against human Capan-2 cells incubated for 48 to 72 hrs by MTS Assay. It is filed as functional, cell-based.
Data set [3] concerns PANC-1. Description: Antitumor activity against human PANC-1 cells incubated for 48 to 72 hrs by MTS Assay. It is filed as functional, cell-based.
A further data set has as its system BXPC-3. Description: Antitumor activity against human BXPC-3 cells incubated for 48 to 72 hrs by MTS Assay. It is filed as functional, cell-based.
For data set [4], the system named is HepG2. The data set can be described thus: Antitumor activity against human HepG2 cells incubated for 72 hrs by SRB calorimetric assay. It is filed as functional, cell-based. Particulars: HepG2, 72 h.
The next data set concerns PC-3. The data set can be described thus: Antitumor activity against human PC-3 cells incubated for 72 hrs by SRB calorimetric assay. It is filed as functional, cell-based. Particulars: PC-3, 72 h.
The subject of data set [5] is PANC-1. The data set can be described thus: Antitumor activity against human PANC-1. It is filed as functional, cell-based. As to conditions: pooled result: one value given for 3 cell lines, strains, targets or settings.
Data set [6] relates to HeLa. Description: Antitumor activity against human HeLa cells. It is filed as functional, cell-based.
Another data set deals with A549. Description: Antitumor activity against human A549 cells incubated for 72 hrs by MTT assay. It is filed as functional, cell-based. As to conditions: A549, 72 h.
For data set [7], the system named is MCF7. Description: Antitumor activity against human MCF7 cells incubated for 72 hrs by MTT assay. As to conditions: MCF7, 72 h. It is filed as functional, cell-based.
Another data set has as its system K562. The data set can be described thus: Antitumor activity against human K562 cells incubated for 24 hrs by CCK-8 assay. As to conditions: K562, 24 h. It is filed as functional, cell-based.
For another data set, the system named is Saccharomyces cerevisiae. The data set can be described thus: Antifungal activity against Saccharomyces cerevisiae IFO 0304 assessed as inhibition of fungal growth incubated for 72 hrs by broth dilution method. It is filed as functional.
In the next data set the test system is Rhizomucor pusillus. Description: Antifungal activity against Rhizomucor pusillus IAM 6122 assessed as inhibition of fungal growth incubated for 72 hrs by broth dilution method. It is filed as functional. In general terms: Broth dilution looks for growth in wells or tubes with falling amounts of substance.
In a further data set the test system is Pichia kudriavzevii. Description: Antifungal activity against Pichia kudriavzevii IFO 0590 assessed as inhibition of fungal growth incubated for 72 hrs by broth dilution method. It is filed as functional.
The subject of the next data set is Cyberlindnera jadinii. Description: Antifungal activity against Cyberlindnera jadinii IFO 0396 assessed as inhibition of fungal growth incubated for 72 hrs by broth dilution method. It is filed as functional. As to conditions: Williopsis jadinii.
The next data set has as its system Aspergillus japonicus. Description: Antifungal activity against Aspergillus japonicus IAM 2016 assessed as inhibition of fungal growth incubated for 72 hrs by broth dilution method. It is filed as functional.
Another data set has as its system Rhizopus delemar. Description: Antifungal activity against Rhizopus delemar IAM 6015 assessed as inhibition of fungal growth incubated for 72 hrs by broth dilution method. It is filed as functional.
Data set [8] relates to L5178Y. The data set can be described thus: Cytotoxicity against mouse L5178Y cells. It is filed as functional.
The test system of another data set is Penicillium chrysogenum. Description: Antifungal activity against Penicillium chrysogenum1AM 7106 assessed as inhibition of fungal growth incubated for 72 hrs by broth dilution method. It is filed as functional. Particulars: 1AM 7106.
Data set [9] in a line: Toxicity in CDF1 mouse allografted with mouse […] cells assessed as lethal dose administered for 6 days ,ip. It is filed as cell-based. As to conditions: in vivo, time 6 day.
For data set [10], the system named is L5178Y. The data set can be described thus: Cytotoxicity against mouse L5178Y. It is filed as toxicity, cell-based.
Data set [11] relates to HeLa. The data set can be described thus: Antitumor activity against human HeLa cells assessed as cell growth inhibition incubated for 3 days. As to conditions: 72 h. It is filed as functional, cell-based.
The test system of the next data set is COLO 201. The data set can be described thus: Antitumor activity against human COL0201 cells assessed as cell growth inhibition incubated for 3 days. It is filed as functional, cell-based. As to conditions: COLO 201, 72 h.
In a further data set the test system is C-33-A. Description: Antitumor activity against human C33A cells assessed as cell growth inhibition incubated for 3 days. It is filed as functional, cell-based. Particulars: 72 h.
Data set [12] has as its system MCF7. The data set can be described thus: Antitumor activity against human MCF7 cells assessed as cell growth inhibition incubated for 3 days. It is filed as functional, cell-based. As to conditions: MCF7, 72 h.
Another data set deals with HT-29. The data set can be described thus: Antitumor activity against human HT29 cells. It is filed as functional, cell-based.
In the next data set the test system is HCT-116. The data set can be described thus: Antitumor activity against human HCT116 cells. It is filed as functional, cell-based.
In another data set the test system is HL-60. Description: Antitumor activity against human HL60 cells. It is filed as functional, cell-based.
The test system of another data set is B16. Description: Antitumor activity against mouse B-16 cells. It is filed as functional, cell-based.
A further data set deals with U-937. Description: Antitumor activity against human U937 cells. It is filed as functional, cell-based.
In another data set the test system is THP-1. The data set can be described thus: Antitumor activity against human THP1 cells. It is filed as functional, cell-based.

By pIC50 is commonly meant −log10 of the IC50, conventionally taken in molar units. On to `CO[C@H]1/C=C/C=C/C=C/C[C@H](OC(=O)[C@@H](C)NC(=O)C2=CCCC2)[C@H](C)[C@@H](O)/C(C)=C\CCc2cc(O)cc(c2)NC(=O)C1`, for which the negative-log IC50 (pIC50) in the data set with HepG2 [1] and in the data set on MCF7 [2] was 5.17 in each case.

Consider `CO[C@H]1/C=C/C=C/C=C/C[C@H](O)[C@H](C)[C@@H](OC(=O)[C@@H](C)NC(=O)C(C)C)/C(C)=C\CCc2cc(O)cc(c2)NC(=O)C1`, for which the pIC50 in the data set with Capan-2, in the data set on PANC-1 [3], in the data set with BXPC-3, in the data set with HepG2 [4] and in the data set with PC-3 was below 5.00 each time.

With `CO[C@H]1/C=C/C=C/C=C/C[C@H](OC(=O)[C@@H](C)NC(=O)C2CCC2)[C@H](C)[C@@H](O)/C(C)=C\CCc2cc(O)cc(c2)NC(=O)C1`, the pIC50 with HepG2 [1] and with MCF7 [2] was 5.13 throughout.

`CC[C@H](C)C(=O)N[C@H](C)C(=O)O[C@H]1C/C=C/C=C/C=C/[C@H](OC)CC(=O)Nc2cc(O)cc(c2)CC/C=C(/C)[C@H](O)[C@H]1C` had a pIC50 in the data set on PANC-1 [5] of 6.47.

As to `CO[C@H]1/C=C/C=C/C=C/C[C@H](OC(=O)[C@@H](C)NC(=O)C2CCCCC2)[C@H](C)[C@@H](O)/C(C)=C\CCc2cc(O)c(SC)c(c2O)NC(=O)C1`, the pIC50 in the data set on HeLa [6] was 7.82.

For the compound `CO[C@H]1/C=C/C=C/C=C/C[C@H](O)[C@H](C)[C@@H](O)/C(C)=C\CCc2cc(O)cc(c2)NC(=O)C1`, the pIC50 in the data set on A549, with MCF7 [7] and in the data set on K562 was below 5.00 each time.

What is called LD50 is the dose at which mortality reaches 50%. Turning to `CO[C@H]1/C=C/C=C/C=C/C[C@H](OC(=O)[C@@H](C)NC(=O)C2CCCCC2)[C@H](C)[C@@H](O)/C(C)=C\CCC2=CC(=O)C=C(NC(=O)C1)C2=O`, the MIC in the data set with Saccharomyces cerevisiae, in the data set on Rhizomucor pusillus, in the data set with Pichia kudriavzevii, with Cyberlindnera jadinii, with Aspergillus japonicus and with Rhizopus delemar was 4 µg/mL (≈ 6.28 µM) throughout. Moreover, the values for the MIC against L5178Y [8], in the data set on Penicillium chrysogenum and in the data set on L5178Y [10] were 0.11 µg/mL (≈ 0.173 µM), 4 µg/mL (≈ 6.28 µM) and 1.25 µM (≈ 0.796 µg/mL), respectively. In addition, in data set [9], the LD50 at 144 h is 56 mg/kg.

Turning to `CO[C@H]1/C=C/C=C/C=C/C[C@H](OC(=O)[C@@H](C)NC(=O)C2CCCCC2)[C@H](C)[C@@H](O)/C(C)=C\CCc2c(O)c(cc3c2SCC(=O)N3)NC(=O)C1`, the pIC50 in the data set with HeLa [11], in the data set on COLO 201, with C-33-A and in the data set with MCF7 [12] was 7.74 throughout.

For the compound `CO[C@H]1/C=C/C=C/C=C/C[C@H](OC(=O)C2(NC(=O)C3=CCCCC3)CC2)[C@H](C)[C@@H](O)/C(C)=C\CCc2cc3c(c(c2O)NC(=O)C1)SCC(=O)N3`, the negative-log IC50 (pIC50) in the data set with HeLa [6], in the data set with HT-29, in the data set on HCT-116, with HL-60, with B16 and in the data set with U-937 was 7.30 throughout. Besides, the pIC50 with THP-1 is 7.30.

With `CO[C@H]1/C=C/C=C/C=C/C[C@H](OC(=O)[C@@H](C)NC(=O)C2CCCC2)[C@H](C)[C@@H](O)/C(C)=C\CCc2cc(O)cc(c2)NC(=O)C1`, the pIC50 in the data set with HepG2 [1] and with MCF7 [2] was at most 5.17 in each case.

For `CO[C@H]1/C=C/C=C/C=C/C[C@H](OC(=O)[C@@H](C)NC(=O)C2=CCCCC2)[C@H](C)[C@@H](O)/C(C)=C\CCc2c(O)c(cc3c2SCC(=O)N3)NC(=O)C1`, the negative-log IC50 (pIC50) in the data set with HeLa [11], with COLO 201, in the data set with C-33-A and in the data set on MCF7 [12] was 7.55 throughout.

`CO[C@H]1/C=C/C=C/C=C/C[C@H](OC(=O)[C@@H](C)NC(=O)C2CCCCC2)[C@H](C)[C@@H](O)/C(C)=C\CCc2cc(O)cc(c2O)NC(=O)C1`: the MIC in the data set with Saccharomyces cerevisiae, in the data set with Rhizomucor pusillus, in the data set on Pichia kudriavzevii, in the data set on Cyberlindnera jadinii, in the data set with Aspergillus japonicus and in the data set on Rhizopus delemar was 4 µg/mL (≈ 6.26 µM) throughout. Also, the MIC in the data set with L5178Y [8] came out at 0.11 µg/mL (≈ 0.172 µM); in the data set with Penicillium chrysogenum, 4 µg/mL (≈ 6.26 µM). The 50% lethal dose (LD50) at 144 h in data set [9] is 80 mg/kg.

With `CO[C@H]1/C=C/C=C/C=C/C[C@H](OC(=O)[C@@H](C)NC(=O)C2CC2)[C@H](C)[C@@H](O)/C(C)=C\CCc2cc(O)cc(c2)NC(=O)C1`, the pIC50 with HepG2 [1] and with MCF7 [2] was below 5.00 in each case.
